The NIST ThermoML archive (doi:10.1021/je034197x)
± gives the expanded uncertainty stated by the source.

Conditions: Liquid, Closed cell (Static) method

| Structure (SMILES) | vapor or sublimation pressure (298.15 K) [kPa] | vapor or sublimation pressure (303.15 K) [kPa] | vapor or sublimation pressure (308.15 K) [kPa] | vapor or sublimation pressure (313.15 K) [kPa] | vapor or sublimation pressure (318.15 K) [kPa] | vapor or sublimation pressure (323.15 K) [kPa] | vapor or sublimation pressure (328.15 K) [kPa] | vapor or sublimation pressure (333.15 K) [kPa] | vapor or sublimation pressure (338.15 K) [kPa] | vapor or sublimation pressure (343.15 K) [kPa] | vapor or sublimation pressure (348.15 K) [kPa] | vapor or sublimation pressure (353.15 K) [kPa] | vapor or sublimation pressure (358.15 K) [kPa] | vapor or sublimation pressure (363.15 K) [kPa] |
| --- | --- | --- | --- | --- | --- | --- | --- | --- | --- | --- | --- | --- | --- | --- |
| CCCCO [butan-1-ol] | 1.003 ± 0.2 | 1.317 ± 0.2 | 1.841 ± 0.2 | 2.544 ± 0.2 | 3.453 ± 0.2 | 4.648 ± 0.2 | 6.171 ± 0.2 | 8.103 ± 0.2 | 10.56 ± 0.2 | 13.6 ± 0.2 | 17.37 ± 0.2 | 21.98 ± 0.2 | 27.65 ± 0.2 | 34.41 ± 0.21 |
| CCC(C)O (stereo not drawn) [butan-2-ol] | 2.44 ± 0.2 | 3.373 ± 0.2 | 4.588 ± 0.2 | 6.234 ± 0.2 | 8.252 ± 0.2 | 10.86 ± 0.2 | 14.13 ± 0.2 | 18.34 ± 0.2 | 23.49 ± 0.2 | 29.71 ± 0.21 | 37.2 ± 0.21 | 46.36 ± 0.21 | 57.16 ± 0.22 | 70.24 ± 0.23 |
| CCO [ethanol] | 7.916 ± 0.024 | 10.54 ± 0.031 | 13.84 ± 0.039 | 17.98 ± 0.049 | 23.17 ± 0.062 | 29.58 ± 0.077 | 37.46 ± 0.097 | 46.95 ± 0.12 | 58.58 ± 0.15 | 72.24 ± 0.18 | 88.66 ± 0.22 | – | – | – |
| CO [methanol] | 16.95 ± 0.046 | 21.88 ± 0.058 | 27.98 ± 0.073 | 35.51 ± 0.092 | 44.59 ± 0.11 | 55.65 ± 0.14 | 68.94 ± 0.17 | 84.62 ± 0.21 | – | – | – | – | – | – |
| CCCO [propan-1-ol] | 2.88 ± 0.013 | 3.998 ± 0.015 | 5.374 ± 0.018 | 7.197 ± 0.023 | 9.568 ± 0.028 | 12.42 ± 0.035 | 16.14 ± 0.044 | 20.72 ± 0.055 | 26.41 ± 0.069 | 33.23 ± 0.086 | 41.63 ± 0.11 | 51.67 ± 0.13 | 63.69 ± 0.16 | 77.81 ± 0.2 |
| CC(C)O [propan-2-ol] | 5.799 ± 0.2 | 7.859 ± 0.2 | 10.52 ± 0.2 | 13.94 ± 0.2 | 18.24 ± 0.2 | 23.64 ± 0.2 | 30.35 ± 0.21 | 38.59 ± 0.21 | 48.66 ± 0.21 | 60.66 ± 0.22 | 75.22 ± 0.23 | 92.44 ± 0.24 | – | – |
